Measured values: US20100016290A1, “AMORPHOUS POLYMORPH OF BAZEDOXIFENE ACETATE” (priority 2008, published 2010)

Tests used:
[1] = Mortar and pestle trials of Form A under mechanical stress (DSC, XRPD); assay type: physicochemical; settings: for decrease in the Enthalpy of Fusion (Form A): after 10 min mixing in reaction solvent
Experimental: Mortar and pestle trials were conducted to test the behavior of polymorph Form A under mechanical stress and to test and measure the kinetics of conversion of crystalline Form A to Form B under mechanical stress (possibly via amorphous Form C).

[2] = Form C on ATR-IR sensor in ethanol vapor atmosphere; assay type: physicochemical; settings: room temperature
Description: IR spectra (see, e.g. FIG. 2) were acquired by placing a few milligrams of the powder of the sample on a diamond sensor ATR (Attenuated Total Reflection) probe (Dicomp) using a React-IR 4000 system operated at 4 cm^−1 resolution and 128 scans between 650-4000 cm^−1.
Some experiments were executed by creating an ethanol vapor atmosphere around the ATR sensor at room temperature.

SMILES | decrease in the Enthalpy of Fusion (Form A) [1] | polymorph form present ([2]; after two hours) | transformation of polymorph form ([2]; on ATR sensor) | amorphous Form C formed under mechanical stress ([1]; confirmed by powder XRD (FIG. 5))
CC(=O)O.Cc1c(-c2ccc(O)cc2)n(Cc2ccc(OCCN3CCCCCC3)cc2)c2ccc(O)cc12 [Sample 7] | About 30% |  |  | 
Cc1c(-c2ccc(O)cc2)n(Cc2ccc(OCCN3CCCCCC3)cc2)c2ccc(O)cc12 [Form C, 1-[4-(2-azepan-1-yl-ethoxy)-benzyl]-2-(4-hydroxy-phenyl)-3-methyl-1H-indol-5-ol acetic acid] |  | only polymorph Form B was present | transform rapidly into polymorph Form B | 
CC(=O)O.Cc1c(-c2ccc(O)cc2)n(Cc2ccc(OCCN3CCCCCC3)cc2)c2ccc(O)cc12 [Sample 8] | About 50% |  |  | significant amount of amorphous Form C
